# Experimental data from publication PMC7502707, “Characterization and validation of a preventative therapy for hypertrophic cardiomyopathy in a murine model of the disease” (Proceedings of the National Academy of Sciences of the …, 2020).
# System: cTnI-G203S cardiac myocytes
# Assay: Calcium transients in Fura-2 loaded myocytes
# Type: cell-based, mouse
# Conditions: in vitro 1 μM peptide
# Description: The whole-cell configuration of the patch-clamp technique was used to measure changes in ICa-L currents ([13]), and stimulate calcium transients in intact ventricular myocytes. Detailed methods are provided in SI Appendix.
# Supporting Materials and Methods
# Isolation of ventricular myocytes
# Myocytes were isolated from wt and cTnI-G203S mice. Animals were anesthetized with pentobarbitone sodium (240 mg/kg) via intraperitoneal injection prior to excision of the heart. Cells were isolated as previously described (1-3). Mouse hearts were excised, cannulated onto a Langendorff apparatus via the aorta, and perfused with Krebs-Henseleit Buffer (KHB) containing […]
# O2/CO2 at 37°C) for 4 min at 37°C. […]
# The whole-cell configuration of the patch-clamp technique was used to measure changes in ICa-L currents (4), and stimulate calcium transients in intact ventricular myocytes. […] Currents were measured in extracellular modified Tyrode’s solution containing (in mM): NaCl 140, CsCl 5.4, CaCl2 2.5, MgCl2 0.5, HEPES 5.5 and glucose 11 (pH adjusted to 7.6 with NaOH). Macroscopic currents were recorded using an Axopatch 200B voltage-clamp amplifier (Molecular Devices) with a Digidata 1440A interface and pClamp10.5 software (Molecular Devices). […] The time course of changes in Ca2+ conductance were monitored by applying a 100 ms test pulse to 10 mV once every 10 seconds. […]
sequence,measurement,value
QQLEEDLKGYLDWITQAE [AID-TAT],"cellular calcium handling (calcium transients, Fura-2)",no significant alteration
